According to ChEMBL document CHEMBL5143655, “Synthesis and biological evaluation of 1,2,4-triazole derivatives as potential Nrf2 activators for the treatment of cerebral ischemic injury” (Eur J Med Chem, 2022):

What was measured:
[1] = Cytotoxicity against human HaCaT cells assessed as reduction in cell viability by MTT assay; format: toxicity, cell-based
PC-12 [2] = assay: Neuroprotective activity against SNP induced rat PC-12 cells assessed as increase in cell viability at 5 uM preincubated for 2 hrs followed by SNP stimulation for 24 hrs by MTT assay relative to control; format: functional
[3] = Cytotoxicity against rat PC-12 cells assessed as reduction in cell viability by MTT assay; format: toxicity, cell-based
PC-12 [4] = assay: Neuroprotective activity against SNP induced rat PC-12 cells assessed as increase in cell viability at 10 uM preincubated for 2 hrs followed by SNP stimulation for 24 hrs by MTT assay relative to control; format: functional
PC-12 [5] = assay: Neuroprotective activity against SNP induced rat PC-12 cells assessed as increase in cell viability at 1 uM preincubated for 2 hrs followed by SNP stimulation for 24 hrs by MTT assay relative to control; format: functional
[6] = Plasma protein binding in Sprague-Dawley rat plasma at 10 uM incubated for 6 hrs by LC-MS/MS based equilibrium dialysis method; format: ADME, cell-free; details: read-out: PPB (converted)
[7] = Plasma protein binding in human plasma at 10 uM incubated for 6 hrs by LC-MS/MS based equilibrium dialysis method; format: ADME, cell-free; details: read-out: PPB (converted)
[8] = Metabolic stability in human plasma assessed as parent compound remaining at 200 uM measured after 60 min by LC-MS/MS analysis relative to control; format: ADME, cell-free; details: read-out: Stability
[9] = Metabolic stability in human plasma assessed as parent compound remaining at 200 uM measured after 120 min by LC-MS/MS analysis relative to control; format: ADME, cell-free; details: read-out: Stability
[10] = Metabolic stability in human plasma assessed as half life at 200 uM by LC-MS/MS analysis relative to control; format: ADME, cell-free
[11] = Metabolic stability in human plasma assessed as parent compound remaining at 200 uM measured after 90 min by LC-MS/MS analysis relative to control; format: ADME, cell-free; details: read-out: Stability
[12] = Metabolic stability in human plasma assessed as parent compound remaining at 200 uM measured after 15 min by LC-MS/MS analysis relative to control; format: ADME, cell-free; details: read-out: Stability
Rattus norvegicus = assay: Neuroprotective activity in Sprague-Dawley rat model of middle cerebral artery occlusion-induced ischemia-reperfusion injury assessed as decrease in cerebral infarct volume at 5 mg/kg, ip preincubated for 1 hrs followed by MCAO operation and further incubated with compound for 4 hrs after reperfusion by TTC staining based assay; format: functional; set-up: scale not given: the % may be the effect or the level left; details: time 5 hrs

SMILES | IC50 [1] [µM] | Activity (PC-12 [2]) [%] | IC50 [3] [µM] | Activity (PC-12 [4]) [%] | Activity (PC-12 [5]) [%] | also measured
CCc1ccc(-n2nc(-c3ccc(C(F)(F)F)cc3O)nc2-c2ccccc2O)cc1 | 57 | 95.36 | 147 | 106.61 | 64.43 | 
Oc1cc(C(F)(F)F)ccc1-c1nc(-c2ccccc2O)n(-c2ccc(OC(F)(F)F)cc2)n1 |  | 84.94 |  | 92.54 | 65.49 | 
Oc1cc(C(F)(F)F)ccc1-c1nc(-c2ccccc2O)n(-c2ccc(Cl)cc2Cl)n1 |  | 86.73 |  | 95.21 | 68.99 | 
Oc1cc(C(F)(F)F)ccc1-c1nc(-c2ccccc2O)n(-c2ccc(C(F)(F)F)cc2)n1 |  | 90.51 |  | 101.67 | 70.66 | 
Oc1cc(C(F)(F)F)ccc1-c1nc(-c2ccccc2O)n(-c2ccc(F)cc2F)n1 |  | 83.53 |  | 97.86 | 65.92 | 
CC(C)c1ccc(-n2nc(-c3ccc(C(F)(F)F)cc3O)nc2-c2ccccc2O)cc1 | 51.4 | 100.41 | 144 | 108 | 69.66 | 
Oc1cc(C(F)(F)F)ccc1-c1nc(-c2ccccc2O)n(-c2ccccc2C(F)(F)F)n1 |  | 80.01 |  | 92.2 | 70.97 | 
CC(=O)N1CCN(c2ccc(OCC3COC(Cn4ccnc4)(c4ccc(Cl)cc4Cl)O3)cc2)CC1 (configuration not stated) [KETOCONAZOLE] |  |  |  |  |  | fraction unbound at 6 h, 10 µM [6]: 0.0032; fraction unbound at 6 h, 10 µM [7]: 0.0128
Cc1ccc(-n2nc(-c3ccc(C(F)(F)F)cc3O)nc2-c2ccccc2O)c(C)c1 | 94.8 | 93.31 | 230 | 106.25 | 73.72 | 
Oc1cc(C(F)(F)F)ccc1-c1nc(-c2ccccc2O)n(-c2cccc(Cl)c2)n1 |  | 92.73 |  | 100.29 | 72.33 | 
Oc1cc(C(F)(F)F)ccc1-c1nc(-c2ccccc2O)n(-c2ccc(Cl)cc2)n1 |  | 87.25 |  | 96.09 | 67.99 | 
N#Cc1ccc(-n2nc(-c3ccc(C(F)(F)F)cc3O)nc2-c2ccccc2O)cc1 |  | 86.8 |  | 98.91 | 66.6 | 
CC(C)[N+](C)(CCOC(=O)C1c2ccccc2Oc2ccccc21)C(C)C [PROPANTHELINE] |  |  |  |  |  | remaining at 1 h, 200 µM [8]: 34.5%; remaining at 2 h, 200 µM [9]: 2.41%; half-life at 200 µM [10]: 23.5 min; remaining at 1.5 h, 200 µM [11]: 17.3%; remaining at 0.25 h, 200 µM [12]: 63.4%
Cc1ccc(-n2nc(-c3ccc(C(F)(F)F)cc3O)nc2-c2ccccc2O)cc1 | 81.8 | 94.12 | 113 | 102.45 | 71.49 | 
Oc1cc(C(F)(F)F)ccc1-c1nc(-c2ccccc2O)n(-c2ccccc2F)n1 |  | 86.63 |  | 100.18 | 63.42 | 
Oc1cc(C(F)(F)F)ccc1-c1nc(-c2ccccc2O)n(-c2ccc(F)cc2)n1 |  | 86.71 |  | 99.83 | 67.16 | 
COc1ccc(-n2nc(-c3ccc(C(F)(F)F)cc3O)nc2-c2ccccc2O)cc1 |  | 86.56 |  | 98.85 | 69.04 | 
Oc1cc(C(F)(F)F)ccc1-c1nc(-c2ccccc2O)n(-c2cc(C(F)(F)F)cc(C(F)(F)F)c2)n1 |  | 75.68 |  | 86.16 | 68.89 | 
Oc1cc(C(F)(F)F)ccc1-c1nc(-c2ccccc2O)n(-c2cc(F)cc(F)c2)n1 | 45.4 | 100.23 | 53.7 | 106.29 | 75.47 | 
CC1=NN(c2ccccc2)C(=O)C1 [EDARAVONE] |  | 70.3 |  | 80.25 | 58.41 | Activity (Rattus norvegicus): 12.77%
Oc1cc(C(F)(F)F)ccc1-c1nc(-c2ccccc2O)n(-c2ccc(Br)cc2)n1 | 29.6 | 89.76 | 66.8 | 100.49 | 69.35 | 
Oc1cc(C(F)(F)F)ccc1-c1nc(-c2ccccc2O)n(-c2ccccc2Cl)n1 |  | 90.63 |  | 102.19 | 70.08 | 
CC(C)(C)c1ccc(-n2nc(-c3ccc(C(F)(F)F)cc3O)nc2-c2ccccc2O)cc1 |  | 77.77 |  | 81.14 | 67.29 | 
Oc1ccccc1-c1nc(-c2ccc(C(F)(F)F)cc2)no1 |  | 81.39 |  | 84.7 | 75.88 | 
COc1ccccc1-n1nc(-c2ccc(C(F)(F)F)cc2O)nc1-c1ccccc1O |  | 85.59 |  | 96.2 | 70.74 | 
Oc1cc(C(F)(F)F)ccc1-c1nc(-c2ccccc2O)n(-c2cccc(F)c2)n1 |  | 87.66 |  | 98.25 | 67.24 | 
Oc1cc(C(F)(F)F)ccc1-c1nc(-c2ccccc2O)n(-c2ccc(I)cc2)n1 | 32.1 | 94.41 | 73.3 | 104.51 | 70.13 | 
Oc1cc(C(F)(F)F)ccc1-c1nc(-c2ccccc2O)n(-c2cccc(C(F)(F)F)c2)n1 | 54.3 | 92.2 | 49.7 | 99.9 | 71.47 | 
COc1cccc(-n2nc(-c3ccc(C(F)(F)F)cc3O)nc2-c2ccccc2O)c1 | 81.1 | 96.76 | 56.4 | 105.81 | 68.27 | 
